Assay results reported in PubChem BioAssay (NCI).
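Results reflect a 48-hour exposure of cells in 96-well plates to compound at five concentrations. Definition used: TGI = concentration required for complete inhibition of growth.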

Legend:
Assay in all cases: NCI tumour cell line growth inhibition, 48 h
P388 leukemia = system: P388 leukemia
SN12K1 renal = system: SN12K1 renal
P388/ADR leukemia = system: P388/ADR leukemia

Structure (SMILES) | TGI (P388 leukemia) [µM] | TGI (SN12K1 renal) [µM] | TGI (P388/ADR leukemia) [µM]
CCC(/C=C/C1OC(=O)C=CC1C)=C\C(C)C/C=C/C(C)=C/C(C)C(=O)C(C)C(O)C(C)C/C(C)=C/C(=O)O (stereo not given) | 6.6 | 4.74 | 
O=C(O)CCC(NC(=O)c1ccc(Nc2nc3cc(C(F)(F)F)ccc3nc2-c2ccccc2)cc1)C(=O)O (stereo not given) | > 100 | > 100 | > 100
